The values that follow come from patent publication US20240262795A1, “PYRAZINE COMPOUNDS AS INHIBITORS OF FLT3” (Biomea Fusion, Inc., priority 2021, published 2024).

Common to all, as to format: cell-based, human
One assay relates to MOLM-13. The assay can be described thus: Proliferation inhibition, CellTiter-Glo, MOLM-13. The settings on record: Homo sapiens, 96 h; MOLM-13 cells, IC50 (4 days), CellTiter-Glo; read-out: MOLM-13 IC50. The source says:
(§1) The proliferation inhibitory effect was investigated in human AML cell lines MOLM-13 (AddexBio: C0003003) and MV-4-11 (ATCC: CRL-9591), and CML cell line […] (ATCC: CRL-3343). Molm-13 is heterozygous for FLT3-ITD mutation, while MV4-11 is homozygous for FLT3-ITD (Quentmeier H, et al., Leukemia. 17(1):120-4). […] Cells were maintained in RPMI-1640 medium (ThermoFisher catalog no. 61870036) supplemented with 10% of Heat Inactivated FBS (ThermoFisher catalog no. A31605) and 1% Pen-Strep (ThermoFisher catalog no. 10378016) and cultured at 37° C. in a humidified incubator with 5% CO2. Cell lines were grown by […], and the cells were maintained in a range 70%-80% confluency.
(§2) ATP is present in all metabolically active cells and is considered as a marker for cell viability and proliferation. Metabolic cell activity was determined using the CellTiter-Glo kit (Promega catalog no. G7572), an ATP monitoring system based on the production of luminescence by the reaction of ATP with added UltraGlo® recombinant luciferase (Kawano et al., 2016, PLOS One, 8; 11(7):e0158888), according to the supplier's experimental recommendations. The assay was based on a 96 well plate format.
(§3) Test compounds were dissolved at 10 mM in DMSO (Sigma catalog no. D8418; purity≥99.9%) and stored at −20° C. Eight concentrations of test compound were assessed in duplicate in an individual test occasion in parallel in the selected cell lines. Gilteratinib and FF-10101 were used as reference compounds and tested in duplicate at eight concentrations. 100% of proliferation is represented by the untreated cells (0.2% DMSO).
(§4) On the day of the experiment, cells were quantified with the cell viability analyzer NucleoCounter (Chemometec NC-200) and diluted with fresh medium to obtain the cell density of about 10,000 cells per 200 μL medium. 200 μL of cell suspension were added into wells in the 96 well plate.
(§5) After 2 hours from seeding cells, compounds at desired concentrations were added using a D300e compound dispenser (Life Sciences Tecan D300) with shaking between each compound dispensed. Assay plates were incubated at 37° C. in a humidified incubator with 5% CO2.
(§6) On day 4 (˜96 hrs after compound addition) assay plates were equilibrated at room temperature for approximately 15 min, and then 40 μL/well of the Promega CellTiterGlo® reagent was added. Contents were mixed for 5 min on an orbital shaker to promote cell lysis, and then incubated at room temperature for an additional 10 min in the dark to stabilize the luminescent signal. Luminescence was read by using a GloMlax GM300 plate reader (Promega) using the luminescence for 96 well plate standard protocol.
(§7) Results were analyzed by GraphPad (Prism) and IC50 values were calculated by non-linear regression using four parameter-logistic equation.
For orientation: Cellular ATP, detected with luciferase, serves as a proxy for viable cell number.

In the next assay the test system is K-562. The assay can be described thus: Proliferation inhibition, CellTiter-Glo, K-562. The conditions noted are these: Homo sapiens, K562, 96 h; K-562 cells, IC50 (4 days), CellTiter-Glo; read-out: K-562 IC50.
Text: as §1, §2, §3, §4, §5, §6, §7

For the next assay, the system named is MV-4-11. The assay can be described thus: Proliferation inhibition, CellTiter-Glo, MV-4-11. The conditions noted are these: Homo sapiens, MV4-11, 96 h; MV-4:11 cells, IC50 (4 days), CellTiter-Glo; read-out: MV-4:11 IC50.
Text: as §1, §2, §3, §4, §5, §6, §7

Where only a bound is given, the exact number is not on record here.

What is called IC50 is the midpoint of a concentration-inhibition curve.

On to `CCc1nc(C(N)=O)c(Nc2cccc(CCNC(=O)[C@H](C)N(C)C(=O)/C=C/CN3CC(F)C3)c2)nc1C` [Compound 240, 6-ethyl-3-[3-[2-[[(2S)-2-[[(E)-4-(3-fluoroazetidin-1-yl)but-2-enoyl]-methyl-amino]propanoyl]amino]ethyl]anilino]-5-methyl-pyrazine-2-carboxamide], for which the IC50 with MOLM-13 is over 500 nM; in the assay on K-562, over 500 nM; in the assay on MV-4-11, 10 to 100 nM.

`Cc1cc(C(N)=O)c(Nc2cncc(CCNC(=O)[C@H](C)N(C)C(=O)/C=C/CN(C)C)c2)nc1C1CC1` [Compound 323, (S,E)-6-cyclopropyl-2-((5-(2-(2-(4-(dimethylamino)-N-methylbut-2 enamido)propanamido)ethyl)pyridin-3-yl)amino)-5-methylnicotinamide]: the results for the concentration for half-maximal inhibition (IC50) with MOLM-13 and in the assay on MV-4-11 were 100 to 500 nM and 10 to 100 nM, respectively.

On to `CCc1cc(C(N)=O)c(Nc2cccc(CCNC(=O)[C@H](C)N(C)C(=O)/C=C/CN(C)C)c2)nc1C1CC1` [Compound 316, 6-cyclopropyl-2-[3-[2-[[(2S)-2-[[(E)-4-(dimethylamino)but-2-enoyl]-methyl-amino]propanoyl]amino]ethyl]anilino]-5-ethyl-pyridine-3-carboxamide], for which the results for the IC50 in the assay with MOLM-13, with K-562 and with MV-4-11 were 100 to 500 nM, over 500 nM and 10 to 100 nM, respectively.

`[2H]C([2H])([2H])N(C/C=C/C(=O)N(C)[C@@H](C)C(=O)NCCc1cccc(Nc2nc(N(C)CC)c(CC)nc2C(N)=O)c1)C([2H])([2H])[2H]` [Compound 246, (S,E)-3-((3-(2-(2-(4-(bis(methyl-d3)amino)-N-methylbut-2-enamido)propanamido)ethyl)phenyl)amino)-6-ethyl-5-(ethyl(methyl)amino)pyrazine-2-carboxamide]: the results for the IC50 with MOLM-13, in the assay with K-562 and in the assay with MV-4-11 were under 1 nM, over 500 nM and under 1 nM, respectively.

Consider `C=CC(=O)N(C)CC(=O)NCCc1cccc(Nc2nc(N(C)C(C)C)c(C)nc2C(N)=O)c1` [Compound 309, 5-[isopropyl(methyl)amino]-6-methyl-3-[3-[2-[[2-[methyl(prop-2-enoyl)amino]acetyl]amino]ethyl]anilino]pyrazine-2-carboxamide], for which the results for the IC50 in the assay on MOLM-13, in the assay with K-562 and in the assay with MV-4-11 were 100 to 500 nM, over 500 nM and 1 to 10 nM, respectively.

Turning to `C=CC(=O)N(C)[C@@H](C)C(=O)NCCc1cccc(Nc2nc(N(C)C(C)C)c(C)nc2C(N)=O)c1` [Compound 231, 5-[isopropyl(methyl)amino]-6-methyl-3-[3-[2-[[(2S)-2-[methyl(prop-2-enoyl)amino]propanoyl]amino]ethyl]anilino]pyrazine-2-carboxamide], the half-maximal inhibitory concentration (IC50) in the assay on MOLM-13 is 10 to 100 nM; in the assay with K-562, over 500 nM; with MV-4-11, 1 to 10 nM.

For the compound `CCc1nc(C(N)=O)c(Nc2cccc(CCNC(=O)CN(C)C(=O)/C=C/CN(C)C)c2)nc1C` [Compound 226, (E)-3-((3-(2-(2-(4-(dimethylamino)-N-methylbut-2-enamido)acetamido)ethyl)phenyl)amino)-6-ethyl-5-methylpyrazine-2-carboxamide], the IC50 with MOLM-13 was 1 to 10 nM; with K-562, over 500 nM; in the assay on MV-4-11, under 1 nM.

Regarding `C=CC(=O)N(C)[C@@H](C)C(=O)NCCc1cccc(Nc2nc(N(C)CC)c(C)nc2C(N)=O)c1` [Compound 225, 5-[ethyl(methyl)amino]-6-methyl-3-[3-[2-[[(2S)-2-[methyl(prop-2-enoyl)amino]propanoyl]amino]ethyl]anilino]pyrazine-2-carboxamide], the half-inhibitory concentration (IC50) is 10 to 100 nM with MOLM-13, over 500 nM with K-562 and 1 to 10 nM in the assay on MV-4-11.

Consider `Cc1nc(Nc2cc(F)cc(CCNC(=O)[C@H](C)N(C)C(=O)/C=C/CN(C)C)c2)c(C(N)=O)nc1C` [Compound 245, 3-[3-[2-[[(2S)-2-[[(E)-4-(dimethylamino)but-2-enoyl]-methyl-amino]propanoyl]amino]ethyl]-5-fluoro-anilino]-5,6-dimethyl-pyrazine-2-carboxamide], for which the concentration for half-maximal inhibition (IC50) with MOLM-13 was 10 to 100 nM; in the assay on K-562, over 500 nM; in the assay with MV-4-11, 1 to 10 nM.

For `CCc1nc(C(N)=O)c(Nc2cccc(CCNC(=O)[C@H](C)N(C)C(=O)/C=C/CNC)c2)nc1C1CC1` [Compound 224, (S,E)-5-cyclopropyl-6-ethyl-3-((3-(2-(2-(N-methyl-4-(methylamino)but-2-enamido)propanamido)ethyl)phenyl)amino)pyrazine-2-carboxamide], the values for the concentration for half-maximal inhibition (IC50) with MOLM-13, with K-562 and in the assay on MV-4-11 were 1 to 10 nM, over 500 nM and under 1 nM, respectively.

Regarding `[2H]C([2H])([2H])N(C/C=C/C(=O)N(C)[C@@H](C)C(=O)NCCc1cccc(Nc2nc(C)c(CC)nc2C(N)=O)c1)C([2H])([2H])[2H]` [Compound 164, 3-[3-[2-[[(2S)-2-[[(E)-4-[bis(trideuteriomethyl)amino]but-2-enoyl]-methyl-amino]propanoyl]amino]ethyl]anilino]-6-ethyl-5-methyl-pyrazine-2-carboxamide], the values for the IC50 in the assay with MOLM-13, in the assay with K-562 and in the assay on MV-4-11 were 10 to 100 nM, over 500 nM and 1 to 10 nM, respectively.

As for `CCc1nc(C(N)=O)c(Nc2cccc(C[C@H](C)NC(=O)CN(C)C(=O)/C=C/CN(C)C)c2)nc1C` [Compound 312, 3-[3-[(2S)-2-[[2-[[(E)-4-(dimethylamino)but-2-enoyl]-methyl-amino]acetyl]amino]propyl]anilino]-6-ethyl-5-methyl-pyrazine-2-carboxamide], the IC50 in the assay on MOLM-13 was 100 to 500 nM; with K-562, over 500 nM; with MV-4-11 it was 10 to 100 nM.

As for `C=CC(=O)N(C)[C@@H](C)C(=O)NCCc1cccc(Nc2nc(C3CC3)c(CC)nc2C(N)=O)c1` [Compound 208, 5-cyclopropyl-6-ethyl-3-[3-[2-[[(2S)-2-[methyl(prop-2-enoyl)amino]propanoyl]amino]ethyl]anilino]pyrazine-2-carboxamide], the figures for the 50% inhibitory concentration (IC50) with MOLM-13, in the assay with K-562 and in the assay on MV-4-11 were 10 to 100 nM, over 500 nM and 1 to 10 nM, respectively.

Turning to `CCc1nc(C(N)=O)c(Nc2cccc(CCNC(=O)[C@H](C)N(C)C(=O)/C=C/CNC)c2)nc1C` [Compound 227, (S,E)-6-ethyl-5-methyl-3-((3-(2-(2-(N-methyl-4-(methylamino)but-2-enamido)propanamido)ethyl)phenyl)amino)pyrazine-2-carboxamide], the IC50 with MOLM-13 was 1 to 10 nM; in the assay with K-562, over 500 nM; in the assay with MV-4-11 it was 1 to 10 nM.

As to `CCc1nc(C(N)=O)c(Nc2cc(CCNC(=O)[C@H](C)N(C)C(=O)/C=C/CN(C)C)ccn2)nc1C1CC1` [Compound 304, 5-cyclopropyl-3-[[4-[2-[[(2S)-2-[[(E)-4-(dimethylamino)but-2-enoyl]-methyl-amino]propanoyl]amino]ethyl]-2-pyridyl]amino]-6-ethyl-pyrazine-2-carboxamide], the IC50 in the assay with MOLM-13 is 100 to 500 nM; in the assay with K-562, over 500 nM; in the assay with MV-4-11, 100 to 500 nM.

Take `CCc1nc(C(N)=O)c(Nc2cc(F)cc(CCNC(=O)[C@H](C)N(C)C(=O)/C=C/CN(C)C)c2)nc1C` [Compound 163, 3-[3-[2-[[(2S)-2-[[(E)-4-(dimethylamino)but-2-enoyl]-methyl-amino]propanoyl]amino]ethyl]-5-fluoro-anilino]-6-ethyl-5-methyl-pyrazine-2-carboxamide]: the IC50 was 1 to 10 nM in the assay with MOLM-13, over 500 nM in the assay with K-562 and 1 to 10 nM in the assay with MV-4-11.

Take `[2H]C([2H])([2H])N(C/C=C/C(=O)N(C)[C@@H](C)C(=O)NCCc1cccc(Nc2nc(NC(C)C)c(CC)nc2C(N)=O)c1)C([2H])([2H])[2H]` [Compound 505, (S,E)-3-((3-(2-(2-(4-(bis(methyl-d3)amino)-N-methylbut-2-enamido)propanamido)ethyl)phenyl)amino)-6-ethyl-5-(isopropylamino)pyrazine-2-carboxamide]: the half-inhibitory concentration (IC50) in the assay on K-562 is over 500 nM.
